According to article PMC5055303, “Identification and Tumour-Binding Properties of a Peptide with High Affinity to the Disialoganglioside GD2” (PLoS ONE, 2016):

What was measured:
IMR32-induced xenografts [1] = test: Distribution of 111In- and 68Ga-labelled DOTA peptides in vivo (gamma counter); design: species or system NMRI nude mice
Description: ^111In was solved in HCl and a pH 3 was adjusted. DOTA peptides (100 μg) were diluted in the same volume of sodium acetate buffer (pH 5.0). Next, a 1:1 mixture (v/v) of the ^111In /HCl solution and the peptide solution was heated to 80°C for 10 minutes before applying it to a C18 reverse-phase cartridge (Strata™-X 33 μm Polymeric Reversed Phase, Phenomenex, Aschaffenburg, Germany). After washing twice with 5 ml water, elution of the ^111In–labelled peptide was achieved using ethanol abs. and volume was adjusted to 100 μl using isotonic NaCl solution.
^111In—labelled DOTA peptides (200–700 kBq) or ^68Ga—labelled DOTA peptides (80–400 kBq) were injected intravenously into mice bearing IMR32-induced (2 x 10^7 cells s.c.) xenografts. Organs and blood of mice were collected between 5 min and 24 h after injection and their radioactive content was quantified using a gamma counter (Automatic Gamma Counter 1480 Wizard TM 3”). The injected dose was calculated by weighing the syringe with and without the tracer. Activity concentrations were corrected for radioactive decay. To evaluate the effects of kidney protection, a mixture containing Gelofusine (80μg/ g bodyweight)/lysine (400μg/ g weight)/arginine (400μg/ g weight) was injected i.v. 5 minutes before application of the tracer. Here, organs and blood were collected 1 h after injection. To compare ^68Ga -labelled peptides with the clinically established tracer, one group of tumour bearing mice received ^124I -MIBG (100–200 kBq) by intravenous injection.

[2] = Phage binding assay on immobilized GD2; design: species or system human; settings: 10 μg GD2 per well, 1 × 10^11 pfu phage, DPBS/Tween20 (0.3%), 1 h room temperature, Fig 1A-C
Description: 96-well microtiter plates (Greiner, Frickenhausen, Germany) were coated with 10 μg GD2 or 10 μg GD1b per well for one hour at room temperature. Wells were then washed 3 times with DPBS/Tween20 (0.05%), blocked with BSA (1%)/DPBS/Tween20 (0.05%) for 1 hour at room temperature, washed again and subsequently filled with H2O. Plates were stored at 8°C until use. For in vitro selection, 2 x 10^11 plaque forming units (pfu) of the unselected M13 Ph.D.-7 phage display peptide library or the phage pool of the subsequent selection rounds was incubated with DPBS/Tween20 (0.1%, 0.2%, 0,3% or 0,4%) in a GD1b coated well for 1 hour at room temperature on a shaker. The phage solution was then transferred to a well containing GD2 and incubated for 1 hour at room temperature. After washing 10 times with DPBS/Tween20 (0.1%, 0.2%, 0,3% or 0,4%), bound phages were eluted by addition of E. coli ER2738 (OD600nm 0.4–0.5) for 30 minutes at 37°C. Phage amplification in 20 ml suspension containing E. coli ER2738 (hereafter referred to as phage pool) and titer determination were performed according to the manufacturer’s instructions with the modification that X-Gal was replaced by S-Gal and ferric ammonium citrate (both obtained from Sigma, Taufkirchen, Germany). For in vivo selection, 2 x 10^11 pfu of the phage pool of the 3rd selection round were injected into the tail vein of a mouse with a xenograft tumour induced by inoculation of IMR32 cells (2 x 10^7). Anaesthetised mice were perfused with DPBS 10 min after phage application. Tumours were explanted, homogenized in LB-medium and the phages were eluted with 900 μl of an E. coli ER2738 suspension at 37°C for 30 minutes in an incubator. Of this suspension, 10 μl were used for the determination of the phage titer. The residual volume was used for phage amplification in 20 ml E. coli ER2738 suspension according to the manufacturer’s instructions. Wells were coated with GD3, GD2, GD1b, GT1b or BSA (10 μg/ well each). For competition experiments, coated wells were pre-incubated with serial dilutions ranging from 10 μg to 100 pg of an 11-mer GD2-specific-peptide in DPBS for one hour at room temperature on a shaker and the supernatant was removed. In total, 1 × 10^11 pfu of the amplified phages were incubated with DPBS/Tween20 (0.3%) for one hour at room temperature on a shaker. After washing with 10 volumes of DPBS/Tween20 (0.3%), bound phages were eluted by adding E. coli ER2738 and phage titer determination was performed as described above. Additionally, an in vivo competition assay was performed in tumour-bearing mice. Therefore, 200 μg of the GD2-specific peptide and 1×10^11 pfu of the phage encoding the same peptide were co-injected intravenously in three IMR32 tumour bearing mice per experiment. Tumours were subsequently harvested and the phage titers were determined as described above.

IMR32-induced xenografts [3] = settings: 1×10^11 pfu i.v., 10 min circulation; for phage recovery from tumour tissue: perfusion with DPBS, WHWRLPS-phage vs. control phage
Description: Human IMR32 tumour cells were injected subcutaneously (s.c.) in the right and left femoral region of anesthetized NMRI nude mice (1×10^7 IMR32 cells in 50 μl DPBS and 150 μl Matrigel (BD)). For PET imaging, IMR32 cells were injected s.c. in the neck fold. Imaging and all other interventions were conducted on day 14 day after tumour cell inoculation.
Of the GD2-specific phage or a control phage (GHGRLPS), 1×10^11 pfu were injected intravenously in three IMR32 tumour bearing mice per phage after an i.p. application of the anaesthetics xylazine (16 mg/kg) and ketamine (100 mg/kg). After 10 minutes, the mice were perfused with DPBS and brain, muscle, stomach, kidneys, heart, lung, spleen, liver and tumour were explanted and weighed. Tissues were homogenized in LB-medium using an Ultra-Turrax T25 homogenizer (IKA Labortechnik, Staufen, Germany). Phages were eluted by the addition of E.coli ER2738 bacteria and the phage titers were determined as described above.

[4] = Phage binding assay on immobilized GT1b; design: species or system human; settings: 10 μg GT1b per well; 1 × 10^11 pfu phage, 1 h room temperature; Fig 1B
Description: (§1) Wells were coated with GD3, GD2, GD1b, GT1b or BSA (10 μg/ well each). For competition experiments, coated wells were pre-incubated with serial dilutions ranging from 10 μg to 100 pg of an 11-mer GD2-specific-peptide in DPBS for one hour at room temperature on a shaker and the supernatant was removed. In total, 1 × 10^11 pfu of the amplified phages were incubated with DPBS/Tween20 (0.3%) for one hour at room temperature on a shaker. After washing with 10 volumes of DPBS/Tween20 (0.3%), bound phages were eluted by adding E. coli ER2738 and phage titer determination was performed as described above. Additionally, an in vivo competition assay was performed in tumour-bearing mice. Therefore, 200 μg of the GD2-specific peptide and 1×10^11 pfu of the phage encoding the same peptide were co-injected intravenously in three IMR32 tumour bearing mice per experiment. Tumours were subsequently harvested and the phage titers were determined as described above.

[5] = Phage binding assay on immobilized GD1b; design: species or system human; settings: 10 μg GD1b per well, 1 × 10^11 pfu phage, 1 h room temperature, Fig 1A, 1B
Description: 96-well microtiter plates (Greiner, Frickenhausen, Germany) were coated with 10 μg GD2 or 10 μg GD1b per well for one hour at room temperature. Wells were then washed 3 times with DPBS/Tween20 (0.05%), blocked with BSA (1%)/DPBS/Tween20 (0.05%) for 1 hour at room temperature, washed again and subsequently filled with H2O. Plates were stored at 8°C until use. For in vitro selection, 2 x 10^11 plaque forming units (pfu) of the unselected M13 Ph.D.-7 phage display peptide library or the phage pool of the subsequent selection rounds was incubated with DPBS/Tween20 (0.1%, 0.2%, 0,3% or 0,4%) in a GD1b coated well for 1 hour at room temperature on a shaker. The phage solution was then transferred to a well containing GD2 and incubated for 1 hour at room temperature. After washing 10 times with DPBS/Tween20 (0.1%, 0.2%, 0,3% or 0,4%), bound phages were eluted by addition of E. coli ER2738 (OD600nm 0.4–0.5) for 30 minutes at 37°C. […]
Wells were coated with GD3, GD2, GD1b, GT1b or BSA (10 μg/ well each). […] Tumours were subsequently harvested and the phage titers were determined as described above.

[6] = Phage binding assay on immobilized GD3; design: species or system human; settings: 10 μg GD3 per well; 1 × 10^11 pfu phage, 1 h room temperature; Fig 1B
Description: as §1

[7] = In vitro competition of WHWRLPS-phage binding to GD2 by soluble peptide; design: species or system human; settings: Fig 2B
Description: as §1

[8] = system: IMR32 neuroblastoma cells; test: Cell proliferation / viability assay (MTT); type: cell-based, human; settings: 1 μg or 10 μg/ml peptide, maximum reduction after 96 h and 10 μg/ml vs. unrelated control peptide, quintuplicate, Fig 2A
Description: Proliferation of the human neuroblastoma cell line IMR32 upon peptide addition was evaluated using MTT assays as described. Peptides were used at a concentration of 1 μg and 10 μg per well in a total volume of 200 μl per well. For each time point and each peptide concentration, experiments and controls were performed in quintuplicate.

IMR32-induced xenografts [9] = test: In vivo competition of phage tumour homing by co-injected peptide; design: species or system NMRI nude mice; settings: i.v. coinjection of 200 μg peptide and 1×10^11 pfu WHWRLPS-phage, 10 min; compared to injection of phage only; Fig 2D
Description: as §1

[10] = one hour after tracer injection, Fig 3C

Compound: N=C(N)NCc1cccc([131I])c1 [124I-MIBG, metaiodobenzylguanidine, reference compound]
- accumulation in tumour tissue, 124I-MIBG vs. 68Ga-labelled peptide (IMR32-induced xenografts [1]; [10]): comparable for both tracers
- activity concentration in blood, 124I-MIBG vs. 68Ga-labelled peptide (IMR32-induced xenografts [1]; [10]): higher
- tissue with highest accumulation (IMR32-induced xenografts [1]; one hour after tracer injection, thyroid not blocked, Fig 3C): thyroid

Compound: GHGRLGS
- binding of phage to immobilized GD2 (phage output titer) [2]: impaired binding

Compound: GHGRLPS
- binding of phage to immobilized GD2 (phage output titer) [2]: impaired binding
- phage recovery from tumour tissue (IMR32-induced xenografts [3]; Fig 2C): did not accumulate in tumour tissue

Compound: GHWRLPS
- binding of phage to immobilized GD2 (phage output titer) [2]: impaired binding

Compound: HAIYPRH [phage 2, reference compound]
- binding of phage to immobilized GT1b [4]: did not bind
- binding of phage to immobilized GD1b [5]: did not bind
- binding of phage to immobilized GD2 (phage output titer) [2]: did not bind
- binding of phage to immobilized GD3 [6]: did not bind

Compound: WHGRLPS
- binding of phage to immobilized GD2 (phage output titer) [2]: impaired binding

Compound: WHWRLGS
- binding of phage to immobilized GD2 (phage output titer) [2]: impaired binding

Compound: WHWRLPS [WHWRLPS-peptide]
- maximum reduction of WHWRLPS-phage binding to GD2 ([7]; in the presence of 10 μg peptide, wells pre-incubated with peptide 1 h): 82%
- peptide concentration sufficient to significantly reduce phage binding to GD2 ([7]; lowest dilution of the series 10 μg to 100 pg, p < 0.05 vs. 0 μg peptide): 100 pg/mL
- effect on IMR32 cell viability [8]: reduce cell viability
- reduction of WHWRLPS-phage recovery from tumour tissue (IMR32-induced xenografts [9]): 84%

Compound: WHWRLPS [WHWRLPS-phage]
- binding of phage to immobilized GD1b ([5]; listed as phage 7): lower affinity
- binding of phage to immobilized GD2 (phage output titer) [2]: specifically bound
- binding of phage to immobilized GD2 (phage output titer) ([2]; listed as phage 7): high affinity
- phage recovery from tumour tissue (IMR32-induced xenografts [3]; Fig 2C): Significantly higher amounts
- organs with phage accumulation (IMR32-induced xenografts [3]; attributed to mononuclear phagocytic system): liver, the spleen and, to a lesser extent, in the lung
- phage recovery from other organs (IMR32-induced xenografts [3]; compared with control phage (GHGRLPS), Fig 2C): lower than that of the control

Compound: WHWRLPS-DOTA [68Ga-labelled WHWRLPS peptide, WHWRLPS-DOTA peptide labelled with 68Ga]
- accumulation in tumour tissue, 124I-MIBG vs. 68Ga-labelled peptide (IMR32-induced xenografts [1]; mouse, in vivo): comparable for both tracers
- tissue with highest accumulation (IMR32-induced xenografts [1]; mouse, in vivo): kidney
- radioactive load in the kidneys with kidney protection (IMR32-induced xenografts [1]; mouse, in vivo, iv): reduced
- radioactivity in the blood with kidney protection (IMR32-induced xenografts [1]; mouse, in vivo, iv): higher accumulation
- tumour-specific uptake, 68Ga- vs. 111In-labelled peptide (IMR32-induced xenografts [1]; mouse, in vivo, iv): higher tumour-specific uptake
- uptake across tissues in comparison to 111In-labelled peptides (IMR32-induced xenografts [1]; mouse, in vivo, iv): higher uptake across all tissues
